Source: ChEMBL document CHEMBL2380210, “Discovery of natural estrogen receptor modulators with structure-based virtual screening” (Bioorg Med Chem Lett, 2013)
Activity calls are given as the source filed them. No cut-off for these calls is given here.

Columns and labels:
Estrogen receptor [1] = molecular target: T1, Estrogen receptor (Homo sapiens, UniProt P03372); test: Antagonist activity at human estrogen receptor-alpha by yeast two-hybrid assay in presence of SRC1
T1 sequence (P03372 whole entry): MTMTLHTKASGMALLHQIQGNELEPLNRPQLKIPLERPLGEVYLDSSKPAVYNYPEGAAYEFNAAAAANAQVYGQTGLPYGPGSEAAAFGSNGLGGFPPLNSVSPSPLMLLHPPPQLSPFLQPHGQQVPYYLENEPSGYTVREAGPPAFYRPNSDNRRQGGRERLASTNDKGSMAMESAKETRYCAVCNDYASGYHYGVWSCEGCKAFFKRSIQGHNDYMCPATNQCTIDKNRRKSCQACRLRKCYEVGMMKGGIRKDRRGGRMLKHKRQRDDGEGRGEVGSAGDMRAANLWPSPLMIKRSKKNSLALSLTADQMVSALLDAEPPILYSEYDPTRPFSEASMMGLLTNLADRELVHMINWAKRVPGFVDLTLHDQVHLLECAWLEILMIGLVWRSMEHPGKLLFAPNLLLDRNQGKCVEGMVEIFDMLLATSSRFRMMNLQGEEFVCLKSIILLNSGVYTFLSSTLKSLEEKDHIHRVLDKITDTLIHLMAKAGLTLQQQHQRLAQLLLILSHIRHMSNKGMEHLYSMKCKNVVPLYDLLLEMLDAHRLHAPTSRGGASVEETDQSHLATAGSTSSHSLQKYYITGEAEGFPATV

Estrogen receptor beta [2] = molecular target: T2, Estrogen receptor beta (Homo sapiens, UniProt Q92731)
Description: Antagonist activity at human estrogen receptor-beta by yeast two-hybrid assay in presence of SRC1

[3] = molecular target: T3, Estrogen receptor (Homo sapiens) (UniProt P03372); test: Antagonist activity at human estrogen receptor-alpha at 25 uM by yeast two-hybrid assay in presence of SRC1
T3 sequence (whole entry): T1 sequence (P03372 whole entry)

Estrogen receptor [4] = molecular target: T1, Estrogen receptor; test: Agonist activity at human estrogen receptor-alpha by yeast two-hybrid assay in presence of SRC1
Estrogen receptor beta [5] = molecular target: T2, Estrogen receptor beta; remark: listed apart in the source
Description: Agonist activity at human estrogen receptor-beta by yeast two-hybrid assay in presence of SRC1

Homo sapiens = species on record: Homo sapiens; test: Selectivity ratio of EC50 for human estrogen receptor-alpha to EC50 for human estrogen receptor-beta

T2 sequence (Q92731 whole entry): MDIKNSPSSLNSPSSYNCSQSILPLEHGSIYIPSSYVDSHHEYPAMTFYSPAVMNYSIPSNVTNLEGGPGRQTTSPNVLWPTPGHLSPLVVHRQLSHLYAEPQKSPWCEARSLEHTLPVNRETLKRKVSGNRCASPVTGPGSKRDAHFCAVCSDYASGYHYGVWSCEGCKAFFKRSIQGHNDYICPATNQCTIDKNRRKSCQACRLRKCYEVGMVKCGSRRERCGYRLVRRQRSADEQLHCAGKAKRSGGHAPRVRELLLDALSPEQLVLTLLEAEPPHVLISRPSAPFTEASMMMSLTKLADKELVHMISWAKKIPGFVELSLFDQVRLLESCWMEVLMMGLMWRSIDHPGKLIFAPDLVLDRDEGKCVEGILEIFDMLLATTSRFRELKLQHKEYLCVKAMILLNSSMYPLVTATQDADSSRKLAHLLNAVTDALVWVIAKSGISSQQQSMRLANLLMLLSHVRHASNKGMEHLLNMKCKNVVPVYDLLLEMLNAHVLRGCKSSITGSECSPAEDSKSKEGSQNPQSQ

Compound	EC50 (Estrogen receptor [1]) [µM]	EC50 (Estrogen receptor beta [2]) [µM]	other results
C/C(=C/C(=O)C[C@@H](C)[C@]1(C)CC[C@@]2(C)C3=CCC4C(C)(C)[C@H](O)CC[C@]4(C)[C@@H]3CC=C21)C(=O)O (stereo partly drawn)	12.6	17.7	
C=C(C)[C@@H]1[C@H](O)C[C@@H]2C(=CC[C@]3(C)[C@@H]([C@H](C)CC/C=C(\C)C(=O)OC)CC[C@@]23C)[C@@]1(C)CCC(=O)O		72.4	Activity [3]: inactive
C=C(C)[C@@H]1[C@H](O)C[C@@H]2C(=CC[C@]3(C)[C@@H]([C@H](C)CC/C=C(\C)C(=O)O)CC[C@@]23C)[C@@]1(C)CCC(=O)O		25.3	Activity [3]: inactive
O=C(O)/C=C/c1ccc(O)cc1 [COUMARIC ACID]			EC50 (Estrogen receptor [4]): 16.1 µM; EC50 (Estrogen receptor beta [5]): 4.89 µM
C/C(=C/C(=O)C[C@@H](C)[C@]1(C)CC[C@@]2(C)C3=CCC4C(C)(C)C(=O)CC[C@]4(C)[C@@H]3CCC21)C(=O)O (stereo partly drawn)	8.32	2.76	
CCOC(=O)c1ccc(O)cc1 [ETHYLPARABEN]			Ratio EC50 (Homo sapiens): 20; EC50 (Estrogen receptor [4]): 38.2 µM; EC50 (Estrogen receptor beta [5]): 1.86 µM
O=C(Cc1ccc(O)cc1)c1ccc(O)cc1O			EC50 (Estrogen receptor [4]): 2.03 µM; EC50 (Estrogen receptor beta [5]): 0.5 µM

Further lines, with some results ahead:

EC50 (Estrogen receptor [1]) [µM]	EC50 (Estrogen receptor beta [2]) [µM]	Compound	other results
48.4	49.2	C=CCc1ccc(OC)c(-c2cc(C=O)cc(O)c2O)c1	
8.17	4.28	CC(C)(O)c1ccc2c(c1)C(=O)C[C@H]1[C@@](C)(C(=O)O)CCC[C@]21C	
	33.8	C=C(C)[C@@H]1[C@H](O)C[C@@H]2[C@]3(CC[C@]4(C)[C@@H]([C@H](C)CC/C=C(\C)C(=O)O)CC[C@@]24C)C[C@]13CCC(=O)O	Activity [3]: inactive
2.55	4.68	C=C(C)[C@@H]1[C@@H]2O[C@@H]2[C@@H]2[C@]3(CC[C@]4(C)[C@@H]([C@H](C)CC/C=C(\C)C(=O)O)CC[C@@]24C)C[C@]13CCC(=O)O	
